Measurements reported in ChEMBL document CHEMBL1122146, “Conformation-activity study of methadone and related compounds” (J Med Chem, 1982).

biological target: Mu-type opioid receptor (Cavia porcellus) (UniProt P97266); experiment: Evaluated for analgesic activity as effective dose; assay type: functional
Sequence (P97266 whole entry): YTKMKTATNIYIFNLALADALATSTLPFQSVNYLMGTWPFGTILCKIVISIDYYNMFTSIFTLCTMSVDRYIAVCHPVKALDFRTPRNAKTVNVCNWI

Compound | ED50
CC[C@H](O)C(c1ccccc1)(c1ccccc1)[C@H](C)CN(C)C | 6.2 mg/kg
CC[C@H](O)C(C[C@@H](C)N(C)C)(c1ccccc1)c1ccccc1 | 7.6 mg/kg
CCC(=O)C(C[C@@H](C)N(C)C)(c1ccccc1)c1ccccc1 | 0.8 mg/kg
CC[C@H](O)C(c1ccccc1)(c1ccccc1)[C@@H](C)CN(C)C | 60.7 mg/kg
CC[C@@H](O)C(c1ccccc1)(c1ccccc1)[C@H](C)CN(C)C | 91.7 mg/kg
CC[C@@H](O)C(C[C@H](C)N(C)C)(c1ccccc1)c1ccccc1 | 63.7 mg/kg
CC[C@H](O)C(C[C@H](C)N(C)C)(c1ccccc1)c1ccccc1 | 3.5 mg/kg
CC[C@@H](O)C(c1ccccc1)(c1ccccc1)[C@@H](C)CN(C)C | 58.7 mg/kg
CC[C@@H](O)C(C[C@@H](C)N(C)C)(c1ccccc1)c1ccccc1 | 24.7 mg/kg
CCC(=O)C(CC(C)N(C)C)(c1ccccc1)c1ccccc1 (stereo in doubt; erythro) | 0.4 mg/kg
CCC(=O)C(C[C@H](C)N(C)C)(c1ccccc1)c1ccccc1 | 25.7 mg/kg
CCC(=O)C(CCN(C)C)(c1ccccc1)c1ccccc1 | 2.5 mg/kg
CCC(O)C(C[C@@H](C)NC)(c1ccccc1)c1ccccc1 (some centres not stated) | 17.7 mg/kg
CCC(=O)C(CC(C)N(C)C)(c1ccccc1)c1ccccc1 (stereo in doubt; threo) | > 50 mg/kg
CCC(O)C(C[C@H](C)NC)(c1ccccc1)c1ccccc1 (some centres not stated) | 10.3 mg/kg
CCC(=O)C(c1ccccc1)(c1ccccc1)[C@H](C)CN(C)C | 1.2 mg/kg
CCC(=O)C(c1ccccc1)(c1ccccc1)[C@@H](C)CN(C)C | 49.8 mg/kg
